Assay results from the METLIN SMRT retention time set (Domingo-Almenara et al. 2019).

Experiment: gradient 5% acetonitrile 3 min, to 50% in 2 min, to 85% in 15 min, held 3 min, 100 µL/min
Details: column: Zorbax Extend-C18 2.1 x 50 mm; eluents: water / acetonitrile, 0.1% formic acid
How it was run: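 Retention times of pure standards were taken from adduct peaks that were selected by computer and manually inspected. Over 3 months, mixtures of ~100 molecules were run by HPLC–quadrupole time-of-flight mass spectrometry in positive and negative ionization mode. The Zorbax Extend-C18 column (2.1 × 50 mm, 1.8 μm) ran at 100 μL/min in water and acetonitrile, each containing 0.1% formic acid, with 40 μL dead volume and 900 μL dwell volume.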

| Structure (SMILES) | RP-LC retention time |
| --- | --- |
| Cc1ccc(-c2cn3c(CC(=O)Nc4ccc(Cl)cc4F)csc3n2)cc1C | 966 s |
| Cc1nc2c(sc3nc(-c4ccccc4)ccc32)c(=O)n1CC(=O)NCCc1ccc(Cl)cc1 | 1080 s |
| CCN(CC)C(=O)c1ccc(-c2nc3cc(NS(=O)(=O)c4cccs4)ccc3n2C)cc1 | 679 s |
| COc1ccc2c(c1)C1(CCN(S(=O)(=O)c3ccc(F)cc3)C1)C(=O)N2 (stereo not given) | 820 s |
| CN1CCCn2nc(C3CCN(S(=O)(=O)c4ccc5c(c4)OCCO5)CC3)cc2C1=O | 718 s |
| Cn1cc(-c2ccccc2)cc1C(=O)O | 842 s |
| CCc1ccc(N2CC(c3nc(-c4ccc(OC)cc4OC)no3)CC2=O)cc1 (stereo not given) | 998 s |
| Cc1ccc(CNC(=O)C2(C)Cn3cnc(C(=O)NCCc4ccccc4)c3C(=O)N2C2CC2)cc1 (stereo not given) | 816 s |
| COc1cc2c(cc1OC)C(C(=O)NCCCN1CCN(C)CC1)C(c1cccs1)N(C)C2=O (stereo not given) | 572 s |
| CNC(=O)Cn1nc(C2CCN(C(=O)c3ccc(F)cc3)CC2)c2c1CCOC2 | 614 s |
| Cc1ccc2c(c1)N(Cc1ccc(F)cc1)N=C(C(=O)N1CCOCC1)S2(=O)=O | 839 s |
| CCOc1ccc(C(=O)N2CCC3(CC2)N=C(c2ccccc2)NO3)cc1 | 799 s |
| Cc1cc(N2CCC(NC(=O)Nc3ccc(Cl)cc3F)C2=O)ccc1F (stereo not given) | 923 s |
| COC(=O)C1=C(C)N(C2CCCC2)C(=O)C1(NC(=O)c1ccccc1OC)C(F)(F)F (stereo not given) | 1070 s |
| CCc1cc(C(=O)Nc2ccc(C)cc2C)nc2ccnn12 | 1090 s |
| CC(C)(C)c1nnc(NC(=O)C2CC(=O)N(CCc3c[nH]c4ccc(F)cc34)C2)s1 (stereo not given) | 782 s |
| O=C(NCc1ccccc1)c1ncccn1 | 609 s |
| O=C(NCCC1=CCCCC1)C1CCCN(c2nccn3nc(-c4ccccc4Cl)cc23)C1 (stereo not given) | 1090 s |
| CCOc1ccccc1NC(=O)Cn1nc2c(Oc3cccc(F)c3)nccn2c1=O | 906 s |

| Structure (SMILES) | RP-LC retention time |
| --- | --- |
| COc1ncc(C(=O)NCc2cc(F)cc(F)c2)cn1 | 718 s |
| c1cc(-c2nc(-c3ccnc(N4CCOCC4)c3)no2)ccn1 | 718 s |
| COc1ccc(F)cc1S(=O)(=O)NC1CCc2nnc(C3CC3)n2CC1 (stereo not given) | 641 s |
| O=C(Nc1ccc2c(c1)C(=O)Nc1ccccc1O2)NC1CCCCC1 | 776 s |
| Cc1cc(F)ccc1NC(=O)CN1C(=O)CCCc2cc(S(=O)(=O)N3CCCCC3)ccc21 | 959 s |
| CCNc1nccc(N2CCC(CC(=O)NCc3ccc(OC)c(OC)c3)CC2)n1 | 614 s |
| Cc1ccccc1C(=O)NCCc1cn(CC(C)C)c2ncccc12 | 808 s |
| Cc1ccc(C)c(NC(=O)Cn2nc3n(c2=O)CCCC3)c1 | 708 s |
| CCCCNC(=O)Cc1csc(-n2nc(C)c(Cl)c2C)n1 | 763 s |
| CCCn1cc(-c2ccncc2)cc1C(=O)NC1CC1 | 579 s |
| CCN(CC)C(=O)c1ccc2c(c1)N(CC(=O)NCCN1CCN(C)CC1)C(=O)CO2 | 567 s |
| Cc1ccccc1Cn1cc(C(=O)O)c(S(=O)(=O)N2CCSCC2)n1 | 848 s |
| O=C(CSc1cc(N2CCCC2)ncn1)NCc1cccs1 | 601 s |
| Cc1cc(C(F)F)n2nc(C(=O)Nc3cc(F)ccc3C)nc2n1 | 852 s |
| Cc1c(C(=O)NCCN2CCOCC2)sc2ncn(CC(=O)N3CCCCC3C)c(=O)c12 (stereo not given) | 598 s |
| CN(C(=O)c1ccncc1)c1ccccc1 | 667 s |
| CC(C)n1cnc2cc(CNC(=O)c3ccco3)ccc21 | 568 s |
| O=C(CCc1nc2ccccc2n(CC(=O)NC2CCc3ccccc32)c1=O)NC1CCCCC1 (stereo not given) | 879 s |
| CC(C)NC(=O)C1CCc2sc(C(=O)N3CCCC3)cc2C1 (stereo not given) | 696 s |

| Structure (SMILES) | RP-LC retention time |
| --- | --- |
| Clc1ccccc1-c1nc2ccccc2[nH]1 | 663 s |
| CCC(=O)N(Cc1ccc(F)cc1)C(C)C(=O)c1c(C)c(C(=O)OC)n(C)c1C (stereo not given) | 922 s |
| COc1cc(Nc2c(C#N)cnc3cc(OCCCN4CCN(C)CC4)c(OC)cc23)c(Cl)cc1Cl | 675 s |
| CCCCCNC(=O)c1sccc1S(=O)(=O)N(C)c1ccc(OCC)cc1 | 1190 s |
| CCc1cccc(Nc2nc3ccncc3n(Cc3ccccc3)c2=O)c1 | 742 s |
| CCC(CC)C(=O)N1C[C@H]2C[C@H](C1)[C@H]1CCCC(=O)N1C2 | 645 s |
| O=C(NC1CCCCC1)C1CCN(Cc2cc3ccccc3n2Cc2ccccc2Cl)CC1 | 847 s |
| Cc1cc2c(=O)n(CC(=O)Nc3ccc(C(F)(F)F)cc3)ccc2s1 | 706 s |
| CCC(Oc1ccc(Cl)cc1)C(=O)OC1CC2CCC(C1)N2C (stereo not given) | 815 s |
| COCCCNC(=O)c1cc(-c2ccc(C)cc2)nc2n[nH]c(-c3ccc(C)cc3)c12 | 881 s |
| O=C(NCC1CCCO1)C1CCN(C(=O)c2ncn3c2COC(c2ccc(F)cc2)C3)CC1 (stereo not given) | 658 s |
| COc1ccc(-c2noc(Cn3nc(-c4ccccc4)ccc3=O)n2)cc1 | 953 s |
| CN(C(=O)Cn1nc2n(c1=O)CCCC2)c1ccccc1 | 632 s |
| CCN1CCCn2cc(S(=O)(=O)Nc3ccccc3C)cc2C1=O | 720 s |
| CN1C(=O)c2cc(C(=O)NCc3ccc(F)cc3)nn2CC1(C)C(=O)NCc1ccc(F)cc1 (stereo not given) | 760 s |
| Fc1ccc(-c2nc3ccccc3[nH]2)cc1 | 557 s |
| CCc1nccn1Cc1nc(-c2ccc(C(F)(F)F)cc2)no1 | 700 s |
| CC(C)Cc1ccc(S(=O)(=O)N2CCc3c(c(-c4nnc(-c5ccccc5F)o4)nn3C)C2)cc1 | 1140 s |
| CCOC(=O)N1CCN(c2cc(C(=O)O)c3cc(NC(=O)c4ccc(Cl)cc4)ccc3n2)CC1 | 667 s |

Results, then the molecule that gave them:

| RP-LC retention time | Structure (SMILES) |
| --- | --- |
| 583 s | CN(C)C(=O)Cn1cnc2ccccc2c1=O |
| 654 s | CCOc1ccc(-n2c(CN3CCN(C(=O)NCC(C)C)CC3)nc3cccnc32)cc1 |
| 732 s | Cc1ccc(C)c(NC(=O)Cn2ncc3c(c2=O)N(C2CC2)C(=O)CS3)c1 |
| 675 s | Cc1cc(C)c2c(-n3cccc3)c(C(=O)N3CCN(c4ccccn4)CC3)sc2n1 |
| 976 s | COc1ccc(Cc2nnc3sc(-c4ccccc4OC)nn23)cc1 |
| 702 s | CC(C)N1C(=O)c2cccnc2Sc2cc(C(=O)NC3CC3)ccc21 |
| 813 s | O=C(CN1CCN(Cc2ccccc2)C1=O)N1CCN(c2ccc(F)cc2)CC1 |
| 916 s | CCc1nc2cc(-c3noc(C(C)NC(=O)c4ccccc4)n3)ccc2o1 (stereo not given) |
| 581 s | CC(=O)NCCc1csc(C2CCN(C(=O)C3CCCO3)CC2)n1 (stereo not given) |
| 829 s | C[C@@H]1CCC2[C@](C)(CO)[C@@H](O)CC[C@]2(C)[C@]12CCC(CO)(CCO)O2 (stereo not given in full) |
| 896 s | CCCn1ccc2sc(C)c(C(=O)NCc3ccccc3OC)c2c1=O |
| 794 s | COc1ccc(-c2noc(Cn3ccn(-c4ccccc4)c(=O)c3=O)n2)cc1 |
| 734 s | CCc1cc(C(=O)N2CCN(CC(C)C)CC2)nc2cc(-c3ccco3)nn12 |
| 834 s | O=C(NCC1CCCO1)C(=O)Nc1ccc(OC(F)(F)F)cc1 (stereo not given) |
| 570 s | O=C(C1CCN(c2ccncc2)CC1)N1CCN(c2ncccn2)CC1 |
| 702 s | COc1ccc(Cn2c(CO)cnc2SCC(=O)N2CCCc3ccccc32)cc1 |
| 1030 s | CCOC(=O)c1ccc2c(c1)NCc1cccc(OC)c1O2 |

| RP-LC retention time | Structure (SMILES) |
| --- | --- |
| 858 s | O=S(=O)(c1cccc2nsnc12)N1CCCC(Cc2noc(-c3cnccn3)n2)C1 (stereo not given) |
| 1100 s | O=C(Cn1cccc1-c1nc(-c2ccccc2)no1)Nc1ccc2c(c1)CCC2 |
| 792 s | Cc1nc(-c2cnccn2)n(CC(=O)Nc2cccc(Cl)c2)c(=O)c1C |
| 1040 s | Cc1ccc(NC(=O)C2CCC(=O)N2S(=O)(=O)c2ccc(C)c(C)c2)cc1C (stereo not given) |
| 653 s | CCC(CN(C)Cc1ccccc1)NC(=O)CSc1nc2ccccc2n(C)c1=O (stereo not given) |
| 687 s | COc1cc2ncnc(Nc3ccc(NC(=O)c4ccccc4)cc3)c2cc1OC |
| 1160 s | Cc1ccc(NC(=O)c2csc(-c3cn(C)c4ncccc34)n2)c(F)c1 |
| 1130 s | Cc1ccc(Cn2nc(-c3nc(C(C)(C)C)no3)ccc2=O)cc1 |
| 706 s | Cc1noc(C)c1CNC(=O)NC1CCCCC1 |
| 690 s | CC(=O)N1CCCN(C2=NS(=O)(=O)C(c3ccc(F)cc3)=C2C)CC1 |
| 750 s | Cc1ccc(Cn2c(CN3CCC(C(=O)N4CCCC4)CC3)cc3ccccc32)cc1 |
| 830 s | O=C(NCc1cccs1)c1nc2ccccn2c1-c1ccsc1 |
| 678 s | COc1cc(C2CC(=O)c3c(C)nc(N4CCN(c5ccccn5)CC4)nc3C2)cc(OC)c1OC (stereo not given) |
| 765 s | COc1ccc(Cl)cc1NS(=O)(=O)c1ccc2c(c1)CCCC(=O)N2 |
| 867 s | Cc1nnc2ccc(-c3noc(-c4ccccc4)n3)cn12 |
| 788 s | CCc1cc(=O)n(CC(=O)Nc2cccc(Cl)c2)c(N2CCOCC2)n1 |
